{
  "source": "patent US20170247366A1",
  "about": "“SUBSTITUTED 4-ALKOXYPICOLINAMIDE ANALOGS AS MGLUR5 NEGATIVE ALLOSTERIC MODULATORS AND METHODS OF MAKING AND USING THE SAME” (VANDERBILT UNIVERSITY, priority 2014, published 2017)",
  "data": [
    {"target": "T1, rat mGluR5 (Rattus norvegicus, UniProt P31424)", "T1 construct": "expressed in transfected cells", "T1 sequence (P31424 21-1203)": "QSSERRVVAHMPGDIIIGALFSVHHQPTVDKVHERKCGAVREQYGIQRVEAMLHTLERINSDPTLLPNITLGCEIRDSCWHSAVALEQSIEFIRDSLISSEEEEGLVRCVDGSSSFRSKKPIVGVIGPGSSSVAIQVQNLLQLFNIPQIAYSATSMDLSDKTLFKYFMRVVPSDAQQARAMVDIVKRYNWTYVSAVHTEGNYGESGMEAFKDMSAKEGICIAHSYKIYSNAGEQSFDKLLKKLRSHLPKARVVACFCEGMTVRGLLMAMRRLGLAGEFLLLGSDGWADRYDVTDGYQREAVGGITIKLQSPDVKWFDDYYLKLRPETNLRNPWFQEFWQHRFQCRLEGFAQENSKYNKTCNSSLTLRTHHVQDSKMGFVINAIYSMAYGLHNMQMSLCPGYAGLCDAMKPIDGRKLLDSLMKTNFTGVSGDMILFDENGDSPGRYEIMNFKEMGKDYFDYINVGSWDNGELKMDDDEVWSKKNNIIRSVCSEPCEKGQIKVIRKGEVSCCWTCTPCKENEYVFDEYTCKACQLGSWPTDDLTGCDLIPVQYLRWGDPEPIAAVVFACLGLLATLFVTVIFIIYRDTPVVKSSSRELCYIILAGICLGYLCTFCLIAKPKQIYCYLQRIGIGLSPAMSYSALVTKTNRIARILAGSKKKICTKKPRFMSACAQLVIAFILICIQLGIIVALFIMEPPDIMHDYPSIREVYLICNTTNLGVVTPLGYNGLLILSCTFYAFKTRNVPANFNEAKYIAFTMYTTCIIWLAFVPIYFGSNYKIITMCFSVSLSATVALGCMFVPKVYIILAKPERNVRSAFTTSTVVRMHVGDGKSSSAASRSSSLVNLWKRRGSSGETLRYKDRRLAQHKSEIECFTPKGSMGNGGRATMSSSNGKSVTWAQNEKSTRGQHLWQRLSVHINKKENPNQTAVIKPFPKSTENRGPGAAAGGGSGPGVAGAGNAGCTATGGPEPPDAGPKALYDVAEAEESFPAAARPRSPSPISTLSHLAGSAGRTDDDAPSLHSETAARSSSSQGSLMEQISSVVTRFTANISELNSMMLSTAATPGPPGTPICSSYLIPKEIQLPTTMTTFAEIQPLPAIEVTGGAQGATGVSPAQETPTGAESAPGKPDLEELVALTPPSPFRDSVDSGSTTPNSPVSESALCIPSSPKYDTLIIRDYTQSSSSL", "experiment": "mGluR5 calcium flux assay in HEK 293A cells, negative allosteric modulation of glutamate EC80 response", "type": "cell-based", "conditions": "HEK cells transfected with rat mGluR5; glutamate EC80; ± is standard error of at least three experiments", "protocol": "HEK 293A cells stably expressing either rat or human mGluR5 were plated in black-walled, clear-bottomed, poly-D-lysine coated 384-well plates in 20 μL of assay medium (DMEM containing 10% dialyzed FBS, 20 mM HEPES, 100 units/mL penicillin/streptomycin plus 250 ng/mL Fungizone, and 1 mM sodium pyruvate) at a density of 20K cells/well. The cells were grown overnight at 37° C. in the presence of 5% CO2. The next day, medium was removed and the cells incubated with 20 μL of 2.3 µM Fluo-4, AM prepared as a 2.3 mM stock in DMSO and mixed in a 1:1 ratio with 10% (w/v) pluronic acid F-127 and diluted in assay buffer (Hank's balanced salt solution, 20 mM HEPES, and 2.5 mM probenecid) for 45 minutes at 37° C. Dye was removed, 20 μL of assay buffer was added, and the plate was incubated for 5 minutes at room temperature.\nCa^2+ flux was measured using the Functional Drug Screening System (FDSS7000, Hamamatsu, Japan). After establishment of a fluorescence baseline for about 3 seconds, the compounds of the present invention were added to the cells, and the response in cells was measured. 2.3 minutes later an EC20 concentration of the mGluR5 receptor agonist glutamate was added to the cells, and the response of the cells was measured for 1.9 minutes; an EC80 concentration of agonist was added and readings taken for an additional 1.7 minutes. All test compounds were dissolved and diluted to a concentration of 10 mM in 100% DMSO. Compounds were then serially diluted 1:3 in DMSO into 10 point concentration response curves, transferred to daughter plates, and further diluted into assay buffer to a 2× stock. Calcium fluorescence measures were recorded as fold over basal fluorescence; raw data was then normalized to the maximal response to glutamate. Antagonism of the agonist response of the mGluR5 receptor in the present invention was observed as a decrease in response to nearly maximal concentrations of glutamate in the presence of compound compared to the response to glutamate in the absence of compound.\nThe raw data file containing all time points was used as the data source in the analysis template. This was saved by the FDSS as a tab-delimited text file. Data were normalized using a static ratio function (F/F0) for each measurement of the total 360 values per well divided by each well's initial value. Data were then reduced to peak amplitudes (Max−Initial Min) using a time range that starts approximately 3 seconds prior to the glutamate EC20/EC80 addition and continues for approximately 90-120 seconds. This is sufficient time to capture the peak amplitude of the cellular calcium response. Individual amplitudes were expressed as % EMax by multiplying each amplitude by 100 and then dividing the product by the mean of the amplitudes derived from the glutamate ECMax-treated wells. IC50 values for test compounds were generated by fitting the normalized values versus the log of the test compound concentration (in mol/L) using a 4 parameter logistic equation where none of the parameters were fixed. Each of the three values collected at each concentration of test compound were weighted evenly.\nFor NAMs with a CRC that plateaus above 10% Glu Max, the IC50 values are reported, the compound is designated a “partial NAM” and the % Glu Max is reported. […] Compounds without measurable activity are designated as “>30,000 nM” since the top concentration of compound tested in the assay is 30 µM. Exemplary data are provided in Tables 1 and 2 below.\nTable 1 below lists specific compounds, experimentally determined molecular mass, and mGluR5 activity determined in a cell-based assay. The mGluR5 activity was determined using the metabotropic glutamate receptor activity assays in human embryonic kidney cells as described herein, wherein the human embryonic kidney cells were transfected with rat mGluR5. The mGluR5 activity data for some compounds are shown as the average of at least three experiments with the standard error in these cases. […]", "units": {"IC50": "nM"}, "values": [
      {"smiles": "Cc1cc(OC2CCC2)cc(C(=O)Nc2ccccn2)n1", "IC50": 43},
      {"smiles": "Cc1cc(OC2COC2)cc(C(=O)Nc2ccccn2)n1", "IC50": 66},
      {"smiles": "Cc1cc(OC2COC2)cc(C(=O)Nc2nc(C)cs2)n1", "IC50": "70 ± 10"},
      {"smiles": "Cc1cc(OC2CCCC2)cc(C(=O)Nc2ccc(F)cn2)n1", "IC50": 3660},
      {"smiles": "Cc1cc(O[C@@H]2CCOC2)cc(C(=O)Nc2ccccn2)n1", "IC50": 23},
      {"smiles": "Cc1cc(O[C@@H]2CCOC2)cc(C(=O)Nc2nc(C)cs2)n1", "IC50": "42 ± 9"},
      {"smiles": "Cc1cc(O[C@H]2CCOC2)cc(C(=O)Nc2ccccn2)n1", "IC50": 194},
      {"smiles": "Cc1cc(O[C@H]2CCOC2)cc(C(=O)Nc2ccc(F)cn2)n1", "IC50": "685 ± 51"},
      {"smiles": "Cc1cc(O[C@H]2CCOC2)cc(C(=O)Nc2nc(C)cs2)n1", "IC50": "133 ± 14"},
      {"smiles": "Cc1cc(OC2CCCCC2)cc(C(=O)Nc2ccc(F)cn2)n1", "IC50": 3350},
      {"smiles": "Cc1cc(OC2CCCOC2)cc(C(=O)Nc2ccccn2)n1", "note": "(stereo not drawn)", "IC50": 224},
      {"smiles": "Cc1cc(OC2CCCOC2)cc(C(=O)Nc2nc(C)cs2)n1", "note": "(stereo not drawn)", "IC50": 140},
      {"smiles": "Cc1cc(O[C@@H]2CCCOC2)cc(C(=O)Nc2ccc(F)cn2)n1", "IC50": "353 ± 83"},
      {"smiles": "Cc1cc(O[C@H]2CCCOC2)cc(C(=O)Nc2ccccn2)n1", "IC50": 75},
      {"smiles": "Cc1cc(OC2CCCCC2)cc(C(=O)Nc2ccccn2)n1", "IC50": 1420},
      {"smiles": "Cc1cc(OC2CCCCC2)cc(C(=O)Nc2nc(C)cs2)n1", "IC50": 2100},
      {"smiles": "Cc1cc(OC2CCCOC2)cc(C(=O)Nc2ccc(F)cn2)n1", "note": "(stereo not drawn)", "IC50": 497},
      {"smiles": "Cc1cc(O[C@@H]2CCCOC2)cc(C(=O)Nc2ccccn2)n1", "IC50": 101},
      {"smiles": "Cc1cc(O[C@@H]2CCCOC2)cc(C(=O)Nc2nc(C)cs2)n1", "IC50": "70 ± 11"},
      {"smiles": "Cc1cc(O[C@H]2CCCOC2)cc(C(=O)Nc2ccc(F)cn2)n1", "IC50": "264 ± 47"},
      {"smiles": "Cc1cc(O[C@H]2CCCOC2)cc(C(=O)Nc2nc(C)cs2)n1", "IC50": "91 ± 3"},
      {"smiles": "Cc1cc(OC2CCOCC2)cc(C(=O)Nc2ccccn2)n1", "IC50": 1560},
      {"smiles": "Cc1cc(OCC2CCO2)cc(C(=O)Nc2ccccn2)n1", "note": "(stereo not drawn)", "IC50": 646},
      {"smiles": "Cc1cc(OCC2CCO2)cc(C(=O)Nc2nc(C)cs2)n1", "note": "(stereo not drawn)", "IC50": 399},
      {"smiles": "Cc1cc(OCC2COC2)cc(C(=O)Nc2ccc(F)cn2)n1", "IC50": 4300},
      {"smiles": "Cc1cc(OCC2CCCO2)cc(C(=O)Nc2ccccn2)n1", "note": "(stereo not drawn)", "IC50": 725},
      {"smiles": "Cc1cc(OCC2CCCO2)cc(C(=O)Nc2nc(C)cs2)n1", "note": "(stereo not drawn)", "IC50": 273},
      {"smiles": "Cc1cc(OC2CCOCC2)cc(C(=O)Nc2nc(C)cs2)n1", "IC50": 446},
      {"smiles": "COCCCOc1cc(C)nc(C(=O)Nc2nc(C)cs2)c1", "IC50": 506},
      {"smiles": "COC[C@H](C)Oc1cc(C)nc(C(=O)Nc2ccc(F)cn2)c1", "IC50": 7610},
      {"smiles": "COC[C@@H](C)Oc1cc(C)nc(C(=O)Nc2ccccn2)c1", "IC50": 2130},
      {"smiles": "COC[C@@H](C)Oc1cc(C)nc(C(=O)Nc2nc(C)cs2)c1", "IC50": 1030},
      {"smiles": "CO[C@H](C)COc1cc(C)nc(C(=O)Nc2ccccn2)c1", "IC50": 194},
      {"smiles": "CO[C@H](C)COc1cc(C)nc(C(=O)Nc2nc(C)cs2)c1", "IC50": 145},
      {"smiles": "CO[C@@H](C)COc1cc(C)nc(C(=O)Nc2ccc(F)cn2)c1", "IC50": 4930},
      {"smiles": "Cc1cc(O[C@@H]2CCOC2)cc(C(=O)Nc2nc(CF)cs2)n1", "IC50": 71},
      {"smiles": "Cc1cc(O[C@@H]2CCOC2)cc(C(=O)Nc2nc(C(F)F)cs2)n1", "IC50": 247},
      {"smiles": "Cc1cc(O[C@@H]2CCOC2)cc(C(=O)Nc2nc(C(F)(F)F)cs2)n1", "IC50": 2040},
      {"smiles": "Cc1cc(O[C@@H]2CCOC2)cc(C(=O)Nc2nc(C3CC3)cs2)n1", "IC50": 153}
    ]}
  ]
}
